Laboratory results from US11472766B2, “Lipid nanoparticle composition” (Suzhou Abogen Biosciences Co., Ltd., priority 2020, dated 2022).

How the values were obtained:
[1] = Encapsulation efficiency of lipid nanoparticles (Quant-it Ribogreen RNA quantification assay); assay type: physicochemical; conditions: LNP encapsulating hEPO mRNA
Outline: (§1)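 Ribogreen fluorescence quantifies encapsulated mRNA and backscatter (173°) DLS sizes the particles. These are microfluidically mixed four-component LNPs in DPBS after dialysis.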

[2] = test system: human erythropoietin (hEPO) mRNA; assay: Animal study: hEPO expression after tail vein injection of LNPs encapsulating hEPO mRNA (serum ELISA); assay type: in vivo; conditions: hEPO level, female ICR mice, 0.5 mg/kg, 6 hours post administration; for Expression at 6 h (μg/ml): class symbols, Table 3
Outline: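 Female ICR mice (6-8 weeks) received LNPs carrying hEPO mRNA by tail vein injection at 0.5 mg/kg, with MC3 LNPs dosed the same way as positive control. Blood was drawn at set times (e.g., 6 h) and serum separated. hEPO was quantified by ELISA and reported as μg/ml.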

[3] = Lipid nanoparticle size by dynamic light scattering (Malvern Zetasizer Nano ZS); assay type: physicochemical; conditions: LNP: cationic lipid/DSPC/cholesterol/PEG-lipid 50:10:38.5:1.5, hEPO mRNA
Outline: as §1

[4] = Apparent pKa of LNP formulations (TNS fluorescence assay); conditions: LNP cationic lipid/DSPC/cholesterol/DMG-PEG 50/10/38.5/1.5 mol %
Protocol: The apparent pKa of each formulation was determined using an assay based on fluorescence of 2-(p-toluidino)-6-napthalene sulfonic acid (TNS). LNP formulations comprising of cationic lipid/DSPC/cholesterol/DMG-PEG (50/10/38.5/1.5 mol %) in PBS were prepared as described above. TNS was prepared as a 300 uM stock solution in distilled water. LNP formulations were diluted to 0.1 mg/ml total lipid in 3 mL of buffered solutions containing 50 mM sodium citrate, 50 mM sodium phosphate, 50 mM sodium borate, and 30 mM sodium chloride where the pH ranged from 3 to 9. An aliquot of the TNS solution was added to give a final concentration of 0.1 mg/ml and following vortex mixing fluorescence intensity was measured at room temperature in a Molecular Devices Spectramax iD3 spectrometer using excitation and mission wavelengths of 325 nm and 435 nm. A sigmoidal best fit analysis was applied to the fluorescence data and the pKa value was measured as the pH giving rise to half-maximal fluorescent intensity.

| SMILES | Encapsulation Efficiency ([1]; Table 3) [%] | Expression at 6 h (μg/ml) [2] | polydispersity ([3]; Table 3) | size nm ([3]; Table 3) [nm] | Apparant Pka ([4]; Table 3) | Encapsulation Efficiency ([1]; Table 2) [%] | Expression at 6 h ([2]; Table 2) [µg/mL] | polydispersity ([3]; Table 2) | size nm ([3]; Table 2) [nm] | Apparant Pka ([4]; Table 2) |
| --- | --- | --- | --- | --- | --- | --- | --- | --- | --- | --- |
| CCCCCCCCC(CCCCCC)COC(=O)CCCCCC(CCCCCC(=O)OCC(CCCCCC)CCCCCCCC)CN(CCO)C1CCC1 (centres unmarked) [Compound 15] | 89.8 | D (<0.1) | 0.313 | 51.17 | 9.21 |  |  |  |  |  |
| CCCCCCCCC(CCCCCCCC)COC(=O)CCOCCN(CCOCCC(=O)OCC(CCCCCCCC)CCCCCCCC)CCN(CCO)C1CCC1 [Compound 102] | 94.10 | B (≥1 and <2) | 0.004 | 70.49 | 6.406 |  |  |  |  |  |
| CCCCCCCCCCCOC(=O)CCCCCN(CCCCCC(=O)NCC(CCCCCCCC)CCCCCCCC)CCN(CCO)C1CCCC1 [Compound 147] | 91.4 | A (≥2) | 0.082 | 69.58 | 7.304 |  |  |  |  |  |
| CCCCCCCCC(CCCCCC)COC(=O)NCCCCN(CCCCNC(=O)OCC(CCCCCC)CCCCCCCC)CCN(CCO)C1CCCCC1 (centres unmarked) [Compound 124] | 96.9 | A (≥2) | 0.061 | 64.66 | 6.984 |  |  |  |  |  |
| CCCCCCCCC(CCCCCC)COC(=O)CCCCCN(CCCCCC(=O)OCC(CCCCCC)CCCCCCCC)CCN(C)CCO (centres unmarked) [Compound B] |  |  |  |  |  | 100.0 | 0.44 | 0.060 | 79.0 | 7.33 |
| CCCCCCCCC(CCCCCC)COC(=O)CCCCCN(CCCCCC(=O)OCC(CCCCCC)CCCCCCCC)CCN(C1CCC1)C1CCC(O)CC1 (centres unmarked) [Compound 93] | 98.3 | A (≥2) | 0.041 | 93.74 | 6.491 |  |  |  |  |  |
| CCCCCCCCC(CCCCCC)COC(=O)CCCCCN(CCCCCC(=O)OCC(CCCCCC)CCCCCCCC)CCN(CCO)C1CCSCC1 (centres unmarked) [Compound 91] | 92.1 | B (≥1 and <2) | 0.106 | 62.06 | 6.257 |  |  |  |  |  |
| CCCCCCCCC(CCCCCC)CNC(=O)NCCCCN(CCCCNC(=O)NCC(CCCCCC)CCCCCCCC)CCN(CCO)C1CCCCC1 (centres unmarked) [Compound 122] | 89.4 | A (≥2) | 0.044 | 57.81 | 7.048 |  |  |  |  |  |
| CCCCC/C=C\CCCOC(=O)CCCCCN(CCCCCC(=O)OCCC/C=C\CCCCC)CCN(CCO)C1CCC1 [Compound 62] | 36.2 | D (<0.1) | 0.156 | 244.8 | 6.438 |  |  |  |  |  |
| CCCCCCCCC(CCCCCC)COC(=O)CCCCCN(CCCCCC(=O)OCC(CCCCCC)CCCCCCCC)CCN(CCO)C1CCOC1 (centres unmarked) [Compound 90] | 97.3 | B (≥1 and <2) | 0.067 | 72 | 6.6 |  |  |  |  |  |
| CCCCCCCCC(CCCCCCCC)COC(=O)CCCCCN(CCCCCC(=O)OCC(CCCCCCCC)CCCCCCCC)CCN(CCCCC)C1CCC(O)CC1 (centres unmarked) [Compound 74] | 93.2 | B (≥1 and <2) | 0.076 | 54.58 | 6.2 |  |  |  |  |  |
| CCCCCCCCC(CCCCCC)COC(=O)NCCCCN(CCCCNC(=O)OCC(CCCCCC)CCCCCCCC)CCN(CCO)C1CCCC1 (centres unmarked) [Compound 125] | 95.6 | A (≥2) | 0.116 | 72.36 | 6.833 |  |  |  |  |  |
| CCCCCCCCC(CCCCCC)CC(=O)OCCCCCN(CCCCCOC(=O)CC(CCCCCC)CCCCCCCC)CCN(CCO)C1CCC1 (centres unmarked) [Compound 20] | 98.1 | A (≥2) | 0.103 | 76.79 | 6.252 |  |  |  |  |  |
| CCCCCCCCCCCOC(=O)CCCCCN(CCCCCC(=O)NCC(CCCCCCCC)CCCCCCCC)CCN(CCO)C1CCC1 [Compound 146] | 94.6 | B (≥1 and <2) | 0.052 | 66.27 | 7.496 |  |  |  |  |  |
| CCCCCCCCC(CCCCCC)COC(=O)CCCCCN(CCCCCC(=O)OCC(CCCCCC)CCCCCCCC)CCN(CCCO)C1CCC1 (centres unmarked) [Compound 28] | 96.5 | A (≥2) | 0.002 | 79.82 | 6.529 |  |  |  |  |  |
| CCCCCCCCCCC(CCCCCC)COC(=O)CCCN(CCCC(=O)OCC(CCCCCC)CCCCCCCCCC)CCN(CCO)C1CCC1 (centres unmarked) [Compound 41] | 97.5 | C (≥0.1 and <1) | 0.054 | 64.04 | 5.93 |  |  |  |  |  |
